Measurements published in patent publication US20200038415A1, “AMINOSTEROL COMPOSITIONS AND METHODS OF USING THE SAME FOR TREATING ERECTILE DYSFUNCTION” (Enterin, Inc., priority 2018, published 2020).
Several values for one entry are separate records, joined by “and”; a condition that tells them apart may be missing. Equal values may be shown once.

What was measured:
[1] = Pharmacokinetics of orally administered squalamine (ENT-01) in Stage 1; type: in vivo, human; conditions: based on PK of intravenously administered squalamine in prior clinical studies
Protocol: PK data were collected on the 10 patients enrolled in Stage 1 and 10 patients enrolled in Stage 2 to determine the extent of systemic absorption. In Stage 1, PK data were obtained at each visit, pre-medication, at 1, 2, 4, 8 and 24 hours (Table 10). In Stage 2, PK was measured on days 1 and 6 of the randomization period pre-medication, at 1, 2, 4 and 8 hours (Table 11).
The mean Cmax, Tmax and T1/2 and AUC of the squalamine ion following squalamine (ENT-01) oral dosing for Stage 1 patients. The PK analyses are only approximate, as the lower limit of the validated concentration range was 10 ng/ml; most of the measured concentrations fell below that value. The mean Cmax, Tmax and T1/2 and AUC of the squalamine ion following squalamine (ENT-01) oral dosing for Stage 2 patients. The PK analyses are only approximate, as the lower limit of the validated concentration range was 0.5 ng/ml.

[2] = tested on: PD patients with constipation; assay: CNS symptoms in Stage 2 (UPDRS, MMSE, PDHQ, BDI-II, sleep diary); type: in vivo, human; conditions: for hallucinations and delusions improved or disappeared during treatment: 6 patients with hallucinations or delusions at baseline
Description: (5) Sleep Diary (participants completed a sleep diary on a daily basis throughout the study. The diaries included time into bed and estimated time to sleep as well as wake time and duration during the night.);
(8) Beck Depression Inventory (BDI-II);
(9) Unified Parkinson's Disease Rating Scale (UPDRS), which consists of 42 items in four subscales (Part I=Non-Motor Aspects of Experiences of Daily Living (nM-EDL) (1.1 cognitive impairment, 1.2 hallucinations and psychosis, 1.3 depressed mood, Part II=Motor Aspects of Experiences of Daily Living (M-EDL), Part III=Motor Examination, and Part IV=Motor Complications;
(10) Mini Mental State Examination (MMSE);
(12) The University of Miami Parkinson's Disease Hallucinations Questionnaire (UM-PDHQ);
Exploratory end-points, in addition to constipation, included for example, (i) depression assessed using the Beck Depression Inventory (BDI-II) (Steer et al. 2000) and Unified Parkinson's Disease Rating Scale (UPDRS); (ii) cognition assessed using the Mini Mental State Examination (MMSE) (Palsteia et al. 2018), Unified Parkinson's Disease Rating Scale (UPDRS), and Trail Making Test (TMT); (iii) sleep and REM-behavior disorder (RBD) using a daily sleep diary, I-Button Temperature Assessment, a REM sleep behavior disorder (RBD) questionnaire (RBDQ) (Stiasny-Kolster et al. 2007), and the UPDRS; (iv) hallucinations assessed using the PD hallucinations questionnaire (PDHQ) (Papapetropoulos et al. 2008), the UPDRS, and direct questioning; (v) fatigue using the Parkinson's Disease Fatigue Scale (PFS-16) and the UPDRS; (vi) motor functions using the UPDRS; and (vii) non-motor functions using the UPDRS.
Assessments were made at baseline and at the end of the fixed dose and washout periods. Circadian system status was evaluated by continuously monitoring wrist skin temperature (Thermochron iButton DS1921H; Maxim, Dallas) following published procedures (Sarabia et al. 2008).
An exploratory analysis was done with respect to the sleep data, the body temperature data, mood, fatigue, hallucinations, cognition and other motor and non-motor symptoms of PD. Continuous measurements within a subject were compared with a paired t-test and continuous measurements between subject groups were compared with a two-group t-test. Categorical data were compared with a chi-squared test or a Fisher's exact test if the expected cell counts are too small for a chi-squared test.

**Q.** Which “oral bio-availability (estimated)” value [1] does the source give for `CC(C)[C@@H](CC[C@@H](C)[C@H]1CC[C@H]2[C@@H]3[C@H](O)C[C@H]4C[C@@H](NCCCNCCCCN)CC[C@]4(C)[C@H]3CC[C@]12C)OS(=O)(=O)O` (single isomer, unassigned) [squalamine (ENT-01), squalamine] here?
**A.** The value was “less than 0.3%”.

**Q.** And the “oral bio-availability (estimated)” value ([1]; listed as aminosterol)?
**A.** Its value is under 0.3%.

**Q.** What about the “hallucinations and delusions improved or disappeared during treatment” value [2] of the same compound?
**A.** The value was 5 of 6 and five.

**Q.** And the “hallucinations and delusions improved or disappeared during treatment” value ([2]; listed as aminosterol)?
**A.** The value was “five and 5 of 6”.

**Q.** What about the “improvement of arm or leg thrashing frequency” value ([2]; baseline 2.2 episodes/week to 0 at maximal dose) of the same compound?
**A.** Its value is 100%.

**Q.** And the “total sleep time versus baseline” value ([2]; beyond 125 mg)?
**A.** Its value is “consistently higher than baseline”.

**Q.** What about the “hallucinations/delusions did not return following discontinuation” value ([2]; in 1 patient) of the same compound?
**A.** Its value is 4 weeks.

**Q.** What about the “hallucinations/delusions did not return following discontinuation” value ([2]; in another patient) of the same compound?
**A.** Its value is 2 weeks.

**Q.** And the “time free of hallucinations following cessation of dosing” value ([2]; one patient)?
**A.** Its value is 1 month.
